The values that follow come from publication PMC9785278, “3-(1,2,3-Triazol-4-yl)-β-Carbolines and 3-(1H-Tetrazol-5-yl)-β-Carbolines: Synthesis and Evaluation as Anticancer Agents” (Pharmaceuticals, 2022).

One data set deals with A375 cells. As to the kind of experiment: SRB antiproliferative assay, A375. Format: cell-based, human. As to conditions: 48 h of treatment, mean ± SEM. From the text:
(§1) Human colorectal adenocarcinoma HCT116 cell lines expressing p53 and its p53-null isogenic derivative (HCT116 p53^−/−) were provided by B. Vogelstein (The Johns Hopkins Kimmel Cancer Center, Baltimore, MD, USA). Human colorectal adenocarcinoma SW837, HT29, pancreatic carcinoma PANC-1, breast adenocarcinoma MCF-7, hepatocarcinoma HEPG2, melanoma A375, normal human foreskin fibroblasts HFF-1, and normal human colon CCD-18Co cell lines were purchased from ATCC (Rockville, MD, USA). The cancer cell lines were routinely cultured with RPMI-1640 medium from Biowest (HCT116, HCT116 p53^−/−, SW837, HT29, A375, MCF-7, HEPG-2, and […]) or DMEM with 5% glucose (HFF-1) and supplemented with 10% fetal bovine serum from Gibco (Alfagene, Lisboa, Portugal). All cells were maintained in a humidified incubator at 37 °C and 5% CO2.
(§2) Human cell lines were seeded in 96-well plates at a density of 5.0 × 10^3 (HCT116 p53 ^−/−, HCT116 wt, HT29, SW837, CCD-18Co, HFF-1, and MCF-7 cell lines) or 4.5 × 10^3 (A375, HEPG2 and PANC-1 cell lines) cells per well, for 24 h. Cells were treated with the appropriate compound, with serial dilutions ranging from 0.2 to 50 µM, for 48 h. Following the incubation, the effects on cell proliferation were evaluated through the SRB assay as stated by Ramos et al.. The IC50 values were determined using the software GraphPad Prism version 9.0.

In the next data set the test system is HT29 cells. As to the kind of experiment: SRB antiproliferative assay, HT29. As to conditions: Homo sapiens, HT-29, 48 h of treatment, mean ± SEM. Type of data set: cell-based.
Text: as §1, §2
(In general: In SRB staining, fixed cells bind dye roughly in proportion to their protein.)

Another data set deals with MCF-7 cells. Description: SRB antiproliferative assay, MCF-7. Type of data set: cell-based, human. As to conditions: 48 h of treatment, mean ± SEM.
Text: as §1, §2

The next data set relates to PANC-1 cells. Description: SRB antiproliferative assay, PANC-1. Format: cell-based, human. The settings on record: 48 h of treatment, mean ± SEM.
Text: as §1, §2

The subject of data set [1] is HCT116 cells. As to the kind of experiment: SRB antiproliferative assay, HCT116 (wt p53). Type of data set: cell-based. The settings on record: Homo sapiens, HCT-116, 48 h of treatment, mean ± SEM.
Text: as §1, §2

Data set [2] deals with breast adenocarcinoma (MCF-7). Also on record: method as in PMID 31247374. As to conditions: cited from earlier work.
For a further data set, the system named is HFF-1 cells. Description: SRB assay, normal foreskin fibroblasts HFF-1. Format: cell-based. The settings on record: 48 h of treatment, normal human foreskin fibroblasts, mean ± SEM.
Text: as §1, §2

For another data set, the system named is HCT116 p53−/− cells. Description: SRB antiproliferative assay, HCT116 p53−/−. Type of data set: cell-based. The settings on record: Homo sapiens, HCT-116, 48 h of treatment, p53 knockout, mean ± SEM.
Text: as §1, §2

The next data set relates to CCD-18Co cells. Description: SRB cytotoxicity assay, normal colon CCD-18Co. Type of data set: cell-based. As to conditions: 48 h of treatment, normal human colon cell line, mean ± SEM.
Text: as §1, §2

The next data set deals with SW837 cells. As to the kind of experiment: SRB antiproliferative assay, SW837. Format: cell-based. The settings on record: Homo sapiens, 48 h of treatment, mean ± SEM.
Text: as §1, §2

The subject of data set [3] is HCT116 cells. Description: Annexin-V apoptosis assay, HCT116. As to conditions: HCT116, 4.5 and 9.0 μM, 48 h, flow cytometry PI/Annexin-V. Type of data set: cell-based, human. On the procedure: The analysis of apoptotic cell death was performed essentially as described by Ramos et al.. Briefly, 1.5 × 10^5 HCT116 cells/well were seeded in 6-well plates, allowed to adhere overnight, and then treated with 4.5 and 9.0 μM of compound 1a. After 48 h of treatment, cells were stained using the Annexin V-FITC Apoptosis Detection Kit I from BD Biosciences (Enzifarma, Porto, Portugal), according to the manufacturer’s instructions. The AccuriTM C6 flow cytometer and the BD Accuri C6 software (BD Biosciences) were used.

A further data set has as its system HEPG2 cells. Description: SRB antiproliferative assay, HEPG2. Format: cell-based, human. The settings on record: 48 h of treatment, mean ± SEM.
Text: as §1, §2

Another data set deals with leukemia (K-562). Also noted: method as in PMID 31247374. As to conditions: cited from earlier work.
For data set [4], the system named is renal adenocarcinoma (786-0). Also noted: method as in PMID 31247374. The settings on record: cited from earlier work.
In data set [5] the test system is ovarian carcinoma (OVCAR-3). Also noted: method as in PMID 31247374. The settings on record: cited from earlier work.

On to `c1ccc(Cn2nnnc2-c2cc3c([nH]c4ccccc43)c(-c3ccccc3)n2)cc1` [1a], for which the IC50 (usually the concentration that inhibits the measured activity by half) in the data set on A375 cells (listed as C00001) is 5.6 ± 0.2 µM; in the data set on A375 cells (Homo sapiens, A-375, 48 h) it was < 8 µM; in the data set on HT29 cells it was 9 ± 0.55 µM; with MCF-7 cells (listed as C00001), 7.7 ± 0.7 µM; with MCF-7 cells (Homo sapiens, MCF7, 48 h), < 8 µM; in the data set on PANC-1 cells (listed as C00001) it was 4 ± 0.4 µM. In addition, the IC50 is < 8 µM in the data set on PANC-1 cells (Homo sapiens, PANC-1, 48 h); 4.5 ± 0.05 µM with HCT116 cells [1]; 4.4 µM in [2]; 29 ± 1.5 µM with HFF-1 cells; 4.6 ± 0.43 µM with HCT116 p53−/− cells; 26 ± 0.82 µM in the data set on CCD-18Co cells. The IC50 with SW837 cells is 44 ± 0.82 µM; in the data set with HEPG2 cells (listed as C00001), 7.5 ± 1.27 µM; in the data set with HEPG2 cells (Homo sapiens, HepG2, 48 h), < 8 µM. Besides, the “Apoptotic cell death (Annexin-positive cells)” value in the data set on HCT116 cells [3] is “associated with apoptotic cell death”.

Regarding `COc1ccc(-c2nc(-c3nnnn3Cc3ccccc3)cc3c2[nH]c2ccccc23)cc1` [1b], the concentration for half-maximal inhibition (IC50) in the data set with HT29 cells was found to be 5.9 ± 1.19 µM; in the data set on HCT116 cells [1], 4.3 ± 0.08 µM; in the data set on HCT116 p53−/− cells it was 4.2 ± 0.31 µM; in the data set with CCD-18Co cells it was 3.4 ± 0.29 µM; with SW837 cells it was 25 ± 1.63 µM.

Take `Fc1ccc(-c2nc(-c3nnnn3Cc3ccccc3)cc3c2[nH]c2ccccc23)cc1` [1c]: the IC50 in the data set on leukemia (K-562) is < 1 µM; with HT29 cells, 9.6 ± 1.18 µM; with HCT116 cells [1], 3.4 ± 0.16 µM; in data set [2], < 1 µM; in [4] it was < 1 µM; in the data set with HCT116 p53−/− cells it was 3.3 ± 0.73 µM. The IC50 was < 1 µM in data set [5], 7.5 ± 0.16 µM in the data set on CCD-18Co cells and 29 ± 3.74 µM in the data set with SW837 cells.

Turning to `Fc1ccc(-c2nc(-c3nnn[nH]3)cc3c2[nH]c2ccccc23)cc1` [1d], the IC50 in [5] is 0.27 µM.

As for `Clc1ccc(-n2cc(-c3cc4c([nH]c5ccccc54)c(-c4ccccc4)n3)nn2)cc1` [13a, 3-(1-(p-Chlorophenyl)-1H-1,2,3-triazol-4-yl)-1-phenyl-β-carboline], the melting point (commonly the temperature, or range, at which the solid turns liquid) fell in the range of 207.5 to 207.9 °C. The 50% inhibitory concentration (IC50) in the data set on HT29 cells is > 50 µM. In the data set with HCT116 cells [1], this compound registered an IC50 of 39 ± 2.16 µM. In the data set with HCT116 p53−/− cells, this compound gave a half-inhibitory concentration (IC50) of 43 ± 0.82 µM. The IC50 in the data set on CCD-18Co cells is > 50 µM. For the same compound, the IC50 in the data set with SW837 cells is > 50 µM.

`Fc1ccc(-c2nc(-c3cn(-c4ccc(Cl)cc4)nn3)cc3c2[nH]c2ccccc23)cc1` [13b, 3-(1-(p-Chlorophenyl)-1H-1,2,3-triazol-4-yl)-1-(p-fluorophenyl)-β-carboline] yielded a melting point of 237.3 to 238.1 °C. Further, in the data set on HT29 cells, the IC50 is > 50 µM. For the same compound, in the data set on HCT116 cells [1], the IC50 was > 50 µM. Moreover, the IC50 with HCT116 p53−/− cells was > 50 µM. Moreover, the IC50 in the data set on CCD-18Co cells was > 50 µM. Moreover, the IC50 with SW837 cells is > 50 µM.

For the compound `COc1ccc(-c2nc(-c3cn(-c4ccc(Cl)cc4)nn3)cc3c2[nH]c2ccccc23)cc1` [13c, 3-(1-(p-Chlorophenyl)-1H-1,2,3-triazol-4-yl)-1-(p-methoxyphenyl)-β-carboline], the melting point is 219.7 to 221.3 °C. The IC50 with HT29 cells is > 50 µM. This compound also registered an IC50 with HCT116 cells [1] of 32 ± 2.45 µM. Besides, the IC50 with HCT116 p53−/− cells was > 50 µM. The half-inhibitory concentration (IC50) in the data set with CCD-18Co cells was > 50 µM. The IC50 in the data set on SW837 cells is > 50 µM.

`CN(C)c1ccc(-c2nc(-c3cn(-c4ccc(Cl)cc4)nn3)cc3c2[nH]c2ccccc23)cc1` [13d, 3-(1-(p-Chlorophenyl)-1H-1,2,3-triazol-4-yl)-1-(p-dimethylaminophenyl)-β-carboline] displayed a melting point of 244.2 to 245.6 °C. Moreover, in the data set with HT29 cells, the concentration for half-maximal inhibition (IC50) is > 50 µM. Moreover, the IC50 in the data set on HCT116 cells [1] is > 50 µM. Besides, in the data set with HCT116 p53−/− cells, the IC50 was > 50 µM. The 50% inhibitory concentration (IC50) in the data set with CCD-18Co cells was > 50 µM. Further, the IC50 with SW837 cells is > 50 µM.

For the compound `O=[N+]([O-])c1cccc(-c2nc(-c3cn(-c4ccc(Cl)cc4)nn3)cc3c2[nH]c2ccccc23)c1` [13e, 3-(1-(p-Chlorophenyl)-1H-1,2,3-triazol-4-yl)-1-(m-nitrophenyl)-β-carboline], the melting point fell in the range of 237.3 to 239.1 °C. Further, the IC50 with HT29 cells was > 50 µM. Besides, the IC50 in the data set with HCT116 cells [1] is > 50 µM. Besides, the IC50 in the data set on HCT116 p53−/− cells is > 50 µM. In addition, the IC50 in the data set with CCD-18Co cells was > 50 µM. Further, the IC50 in the data set on SW837 cells is > 50 µM.

`Clc1ccc(-n2cc(-c3cc4c([nH]c5ccccc54)c(-c4ccccc4Cl)n3)nn2)cc1` [13f, 3-(1-(p-Chlorophenyl)-1H-1,2,3-triazol-4-yl)-1-(o-chlorophenyl)-β-carboline]: the melting point was 219.7 to 221.3 °C. The IC50 with HT29 cells was > 50 µM. The half-maximal inhibitory concentration (IC50) in the data set with HCT116 cells [1] was > 50 µM. In the data set with HCT116 p53−/− cells, the IC50 was > 50 µM. Also, the IC50 with CCD-18Co cells is > 50 µM. Moreover, the IC50 with SW837 cells was > 50 µM.

With `COC(=O)c1cc2c([nH]c3ccccc32)c(-c2ccccc2)n1` [14a], the IC50 with HCT116 cells [1] and with HCT116 p53−/− cells was > 50 µM throughout.

With `COC(=O)c1cc2c([nH]c3ccccc32)c(-c2ccc(OC)cc2)n1` [14b], the 50% inhibitory concentration (IC50) with HCT116 cells [1] and in the data set with HCT116 p53−/− cells was > 50 µM each time.

`COC(=O)c1cc2c([nH]c3ccccc32)c(-c2ccc(N(C)C)cc2)n1` [14c]: the IC50 in the data set with HCT116 cells [1] turned out to be 15 ± 1.41 µM; in the data set on HCT116 p53−/− cells, 18 ± 0.47 µM.

Consider `COC(=O)c1cc2c([nH]c3ccccc32)c(-c2cccc([N+](=O)[O-])c2)n1` [14d], for which the IC50 in the data set on HCT116 cells [1] and in the data set with HCT116 p53−/− cells was > 50 µM throughout.

With `COC(=O)c1cc2c([nH]c3ccccc32)c(-c2ccccc2Cl)n1` [14e], the IC50 in the data set with HCT116 cells [1] and in the data set with HCT116 p53−/− cells was > 50 µM each time.

On to `COc1cc([C@@H]2c3cc4c(cc3[C@@H](O[C@@H]3O[C@@H]5CO[C@@H](C)O[C@H]5[C@H](O)[C@H]3O)[C@H]3COC(=O)[C@H]23)OCO4)cc(OC)c1O` [Etoposide, reference compound], for which the 50% inhibitory concentration (IC50) with A375 cells (Homo sapiens, A-375, 48 h) came out at 0.9 ± 0.07 µM; in the data set with HT29 cells, 0.7 ± 0.1 µM; in the data set on MCF-7 cells (Homo sapiens, MCF7, 48 h), 2.1 ± 0.03 µM; in the data set on PANC-1 cells (Homo sapiens, PANC-1, 48 h), 3.1 ± 0.05 µM; in the data set with HCT116 cells [1], 0.6 ± 0.05 µM; with HFF-1 cells it was 1.1 ± 0.01 µM. In addition, the IC50 in the data set on HCT116 p53−/− cells is 0.9 ± 0.07 µM; in the data set on CCD-18Co cells, 0.5 ± 0.07 µM; with SW837 cells, 0.9 ± 0.07 µM; in the data set on HEPG2 cells (Homo sapiens, HepG2, 48 h), 1.7 ± 0.2 µM.
